Source: patent US20090137572A1, “2-substituted-4-heteroaryl-pyrimidines useful for the treatment of proliferative disorders” (priority 2004, published 2009)

Experiments:
[1] = biological target: T1, Flt3 (FMS-like tyrosine kinase-3) (Homo sapiens, UniProt P36888); experiment: Kinase assay (radioactive phosphate incorporation), Flt3; type: biochemical; conditions: pIC50 is -log(IC50, M), read-out: Kinase Inhibition pIC50 Flt3 (converted)
T1 sequence (P36888 27-993): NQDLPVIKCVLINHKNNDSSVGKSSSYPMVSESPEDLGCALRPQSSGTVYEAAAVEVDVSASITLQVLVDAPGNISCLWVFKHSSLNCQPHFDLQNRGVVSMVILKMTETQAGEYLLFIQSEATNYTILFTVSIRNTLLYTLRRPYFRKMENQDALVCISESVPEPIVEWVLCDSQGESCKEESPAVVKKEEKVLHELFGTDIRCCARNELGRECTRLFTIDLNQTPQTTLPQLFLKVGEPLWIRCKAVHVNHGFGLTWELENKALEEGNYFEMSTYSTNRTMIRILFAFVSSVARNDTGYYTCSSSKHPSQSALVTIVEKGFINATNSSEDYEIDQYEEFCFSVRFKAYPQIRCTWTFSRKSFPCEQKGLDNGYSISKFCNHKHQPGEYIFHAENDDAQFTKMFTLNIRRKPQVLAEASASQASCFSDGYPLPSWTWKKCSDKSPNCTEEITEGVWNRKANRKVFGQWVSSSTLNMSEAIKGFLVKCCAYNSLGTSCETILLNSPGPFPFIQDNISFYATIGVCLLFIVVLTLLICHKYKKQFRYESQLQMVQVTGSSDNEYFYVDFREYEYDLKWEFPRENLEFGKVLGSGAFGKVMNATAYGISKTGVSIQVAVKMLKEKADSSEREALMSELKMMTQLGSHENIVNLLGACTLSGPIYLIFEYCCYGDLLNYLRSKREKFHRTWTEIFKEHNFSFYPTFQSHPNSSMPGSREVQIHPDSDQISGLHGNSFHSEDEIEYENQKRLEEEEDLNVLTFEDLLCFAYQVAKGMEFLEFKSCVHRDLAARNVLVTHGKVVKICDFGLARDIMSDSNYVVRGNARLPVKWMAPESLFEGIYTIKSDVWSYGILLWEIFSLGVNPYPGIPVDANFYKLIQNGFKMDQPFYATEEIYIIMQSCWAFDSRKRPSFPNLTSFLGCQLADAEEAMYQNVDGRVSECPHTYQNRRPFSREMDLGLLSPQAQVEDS
Method: (§1) Kinase assays. The compounds of the invention above were investigated for their ability to inhibit the enzymatic activity of various protein kinases (Table 2). This was achieved by measurement of incorporation of radioactive phosphate from ATP into appropriate polypeptide substrates. Recombinant protein kinases and kinase complexes were produced or obtained commercially. Assays were performed using 96-well plates and appropriate assay buffers (typically 25 mM β-glycerophosphate, 20 mM MOPS, 5 mM EGTA, 1 mM DTT, 1 mM […], pH 7.4), into which were added 2-4 μg of active enzyme with appropriate substrates. The reactions were initiated by addition of Mg/ATP mix (15 mM MgCl2+100 μM ATP with 30-50 kBq per well of [γ-^32P]-ATP) and mixtures incubated as required at 30° C. Reactions were stopped on ice, followed by filtration through p81 filterplates or GF/C filterplates (Whatman Polyfiltronics, Kent, UK). After washing 3 times with 75 mM aq orthophosphoric acid, plates were dried, scintillant added and incorporated radioactivity measured in a scintillation counter (TopCount, Packard Instruments, Pangbourne, Berks, UK). Compounds for kinase assay were made up as 10 mM stocks in DMSO and diluted into 10% DMSO in assay buffer.

Aurora A kinase = biological target: T2, Aurora A kinase (Homo sapiens, UniProt O14965); experiment: Aurora-A (human) kinase assay (Kemptide substrate); type: biochemical; conditions: pIC50 is -log(IC50, M); 15 μM ATP; read-out: Kinase Inhibition pIC50 Aurora A kinase (converted)
T2 construct: purchased
T2 sequence (O14965 1-403): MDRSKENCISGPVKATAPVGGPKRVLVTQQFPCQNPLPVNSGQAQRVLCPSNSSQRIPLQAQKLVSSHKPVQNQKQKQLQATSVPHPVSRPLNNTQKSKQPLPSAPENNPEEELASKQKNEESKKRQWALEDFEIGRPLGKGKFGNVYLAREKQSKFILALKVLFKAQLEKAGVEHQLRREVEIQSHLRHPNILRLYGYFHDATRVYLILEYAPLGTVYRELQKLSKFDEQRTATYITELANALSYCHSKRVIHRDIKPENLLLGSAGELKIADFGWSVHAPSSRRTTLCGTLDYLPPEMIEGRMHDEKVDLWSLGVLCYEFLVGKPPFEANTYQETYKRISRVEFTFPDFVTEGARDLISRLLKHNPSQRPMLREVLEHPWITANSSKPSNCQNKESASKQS
How it was run: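 Radiometric filter-binding assay: commercial aurora-A kinase (5-10 ng) with 200 μM Kemptide in MOPS/EDTA pH 7.0, started with 10 mM Mg acetate and 15 μM ATP plus [γ-33P]-ATP. Incubated 40 min at room temperature, stopped with phosphoric acid, incorporated 33P counted by scintillation.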

CDK2-cycline E = CDK2-cycline E (Homo sapiens, UniProt P24941); experiment: Kinase assay (radioactive phosphate incorporation), CDK2-cyclin E; type: biochemical; conditions: read-out: Kinase Inhibition pIC50 CDK2-cycline E (converted)
How it was run: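 Recombinant active enzyme (2-4 μg) with suitable polypeptide substrate in 25 mM β-glycerophosphate, 20 mM MOPS, 5 mM EGTA, 1 mM DTT, 1 mM […], pH 7.4. Started with 15 mM MgCl2/100 μM ATP plus [γ-32P]-ATP, incubated at 30° C; 32P incorporation captured on filter plates and counted by scintillation.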

CDK7/cyclin H = CDK7/cyclin H (Homo sapiens, UniProt P50613); experiment: CDK 7 assay (CTD peptide substrate); type: biochemical; conditions: read-out: Kinase Inhibition pIC50 CDK7-cyclin H (converted)
Sequence of CDK7/cyclin H (P50613 whole entry): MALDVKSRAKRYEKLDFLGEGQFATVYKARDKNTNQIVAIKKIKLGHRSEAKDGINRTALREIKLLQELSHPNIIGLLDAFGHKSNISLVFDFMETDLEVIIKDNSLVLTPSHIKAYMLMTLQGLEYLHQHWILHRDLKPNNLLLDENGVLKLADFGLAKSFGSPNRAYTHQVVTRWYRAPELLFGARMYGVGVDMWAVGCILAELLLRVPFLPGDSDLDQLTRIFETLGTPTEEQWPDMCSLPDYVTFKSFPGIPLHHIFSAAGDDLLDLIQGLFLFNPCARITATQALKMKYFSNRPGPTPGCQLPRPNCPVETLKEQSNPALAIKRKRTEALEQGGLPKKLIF
Sequence of CDK7/cyclin H (P51946 whole entry partner): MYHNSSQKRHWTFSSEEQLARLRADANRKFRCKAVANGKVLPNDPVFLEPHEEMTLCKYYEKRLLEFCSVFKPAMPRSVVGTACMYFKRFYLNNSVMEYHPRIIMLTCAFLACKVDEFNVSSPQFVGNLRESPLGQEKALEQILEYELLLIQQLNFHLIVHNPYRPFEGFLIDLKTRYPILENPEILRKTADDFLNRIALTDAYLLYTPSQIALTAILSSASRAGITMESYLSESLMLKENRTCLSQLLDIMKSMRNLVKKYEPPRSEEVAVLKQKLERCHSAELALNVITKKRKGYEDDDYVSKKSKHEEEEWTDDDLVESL
Method: as §1
CDK 7 and 9 assays. CTD peptide substrate (biotinyl-Abx-(Tyr-Ser-Pro-Thr-Ser-Pro-Ser)4-NH2; 1-2 mg/mL) and recombinant human CDK7/cyclin H, CDK9/cyclin T1, or CDK9/cyclin K (0.5-2 μg) were incubated for 45 min at 30° C. in the presence of varying amounts of test compound in 20 mM MOPS pH 7.2, 25 mM β-glycerophosphate, 5 mM EGTA, 1 mM DTT, 1 mM sodium vanadate, 15 mM MgCl2, and 100 μM ATP (containing a trace amount of ^32PγATP) in a total volume of 25 μL in a 96-well microtiter plate. The reaction was stopped by placing the plate on ice for 2 min. Avidin (50 μg) was added to each well, and the plate was incubated at room temp for 30 min. The samples were transferred to a 96-well P81 filter plate, and washed (4×200 μL per well) with 75 mM phosphoric acid. Microscint 40 scintillation liquid (50 μL) was added to each well, and the amount of ^32P incorporation for each sample was measured using a Packard Topcount microplate scintillation counter.

CDK9/cyclin T1 = CDK9/cyclin T1 (Homo sapiens, UniProt P50750); experiment: CDK 9 assay (CTD peptide substrate); type: biochemical; conditions: read-out: Kinase Inhibition pIC50 CDK9-cyclin T1 (converted)
Sequence of CDK9/cyclin T1 (P50750 whole entry): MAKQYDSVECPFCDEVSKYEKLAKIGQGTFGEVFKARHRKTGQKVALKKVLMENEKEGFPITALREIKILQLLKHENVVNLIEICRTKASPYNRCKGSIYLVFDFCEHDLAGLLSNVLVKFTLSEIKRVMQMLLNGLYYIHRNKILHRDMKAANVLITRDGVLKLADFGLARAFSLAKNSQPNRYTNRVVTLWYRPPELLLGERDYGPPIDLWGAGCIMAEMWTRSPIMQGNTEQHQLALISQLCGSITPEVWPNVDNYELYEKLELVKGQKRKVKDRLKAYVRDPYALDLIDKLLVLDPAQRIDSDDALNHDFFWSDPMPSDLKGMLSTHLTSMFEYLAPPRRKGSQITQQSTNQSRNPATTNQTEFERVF
Sequence of CDK9/cyclin T1 (O60563 whole entry partner): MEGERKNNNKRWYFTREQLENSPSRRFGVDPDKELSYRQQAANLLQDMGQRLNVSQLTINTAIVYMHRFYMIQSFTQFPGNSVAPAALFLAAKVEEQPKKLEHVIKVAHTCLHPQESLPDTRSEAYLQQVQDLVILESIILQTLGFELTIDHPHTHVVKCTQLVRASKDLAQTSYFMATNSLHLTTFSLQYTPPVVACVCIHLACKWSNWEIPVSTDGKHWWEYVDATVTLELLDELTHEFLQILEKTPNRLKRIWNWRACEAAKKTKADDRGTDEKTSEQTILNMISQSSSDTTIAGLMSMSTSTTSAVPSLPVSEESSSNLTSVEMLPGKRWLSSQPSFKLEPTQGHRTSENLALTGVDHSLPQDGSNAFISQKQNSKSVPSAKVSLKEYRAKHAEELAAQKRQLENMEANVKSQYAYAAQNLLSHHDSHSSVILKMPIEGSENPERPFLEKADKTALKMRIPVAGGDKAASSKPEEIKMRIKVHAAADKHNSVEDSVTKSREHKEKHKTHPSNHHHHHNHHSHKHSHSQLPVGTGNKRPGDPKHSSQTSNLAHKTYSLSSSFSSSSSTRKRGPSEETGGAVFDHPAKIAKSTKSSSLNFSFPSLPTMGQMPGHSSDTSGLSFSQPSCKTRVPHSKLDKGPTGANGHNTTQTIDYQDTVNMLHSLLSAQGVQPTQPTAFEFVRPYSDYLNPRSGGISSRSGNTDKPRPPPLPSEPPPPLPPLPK
How it was run: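 Recombinant human kinase/cyclin complex (0.5-2 μg) with biotinylated CTD heptapeptide-repeat substrate and test compound, 45 min at 30° C in MOPS pH 7.2 buffer with 15 mM MgCl2 and 100 μM ATP traced with [γ-32P]ATP. Avidin added, P81 filter capture, phosphoric acid washes, scintillation counting of 32P incorporation.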

Row | Structure (SMILES) | IC50 [1] | IC50 (Aurora A kinase) | melting point | IC50 (CDK2-cycline E) | IC50 (CDK7/cyclin H) | IC50 (CDK9/cyclin T1)
1 | Cc1nc(-c2cccnc2)sc1-c1ccnc(Nc2ccc(N3CCOCC3)cc2)n1 [Compound 100, [4-(4-Methyl-2-pyridin-3-yl-thiazol-5-yl)-pyrimidin-2-yl]-(4-morpholin-4-yl-phenyl)-amine] | 0.316 µM | 0.251 µM | 240 to 242 °C |  |  | 
2 | CC(=O)NCc1ccc(Nc2nccc(-c3sc(-c4cccnc4)nc3C)n2)cc1 [Compound 103, N-{4-[4-(4-Methyl-2-pyridin-3-yl-thiazol-5-yl)-pyrimidin-2-ylamino]-benzyl}-acetamide] |  |  | 199 to 201 °C | 2.51 µM | 2.51 µM | 5.01 µM
3 | CC(=O)N1CCN(c2ccc(Nc3nccc(-c4sc(-c5cccs5)nc4C)n3)cc2)CC1 [Compound 131, 1-(4-{4-[4-(4-Methyl-2-thiophen-2-yl-thiazol-5-yl)-pyrimidin-2-ylamino]-phenyl}-piperazin-1-yl)-ethanone] |  | 0.251 µM | 134 to 136 °C | 2.51 µM | 1.58 µM | 2.51 µM
4 | CCNc1nc(C)c(-c2ccnc(Nc3ccc(N4CCOCC4)c(OC)c3)n2)s1 [Compound 157, [4-(2-Ethylamino-4-methyl-thiazol-5-yl)-pyrimidin-2-yl]-(3-methoxy-4-morpholin-4-yl-phenyl)-amine] |  | 0.0251 µM | 224 to 226 °C | 0.251 µM |  | 
5 | Cc1nc(NCCc2ccccc2)sc1-c1ccnc(Nc2ccc(N3CCOCC3)cc2)n1 [Compound 158, [4-(4-Methyl-2-phenethylamino-thiazol-5-yl)-pyrimidin-2-yl]-(4-morpholin-4-yl-phenyl)-amine] |  | 0.2 µM | 226 to 228 °C | 1 µM |  | 
6 | COc1cc(Nc2nccc(-c3sc(N)nc3C)n2)cc(OC)c1 [Compound 161, [4-(2-Amino-4-methyl-thiazol-5-yl)-pyrimidin-2-yl]-(3,5-dimethoxy-phenyl)-amine] | 0.00501 µM | 0.1 µM | 269 to 271 °C | 0.158 µM |  | 
7 | CCNc1nc(C)c(-c2ccnc(Nc3ccc4c(c3)OCO4)n2)s1 [Compound 178, Benzo[1,3]dioxol-5-yl-[4-(2-ethylamino-4-methyl-thiazol-5-yl)-pyrimidin-2-yl]-amine] |  | 0.158 µM | 194 to 195 °C | 0.2 µM |  | 
8 | Cc1nc(N)sc1-c1ccnc(Nc2ccc3c(c2)OCO3)n1 [Compound 179, [4-(2-Amino-4-methyl-thiazol-5-yl)-pyrimidin-2-yl]-benzo[1,3]dioxol-5-yl-amine] |  | 0.0794 µM | 211 to 213 °C | 0.1 µM |  | 
9 | Cc1nc(N)sc1-c1ccnc(Nc2ccc(N3CCSCC3)cc2)n1 [Compound 201, [4-(2-Amino-4-methyl-thiazol-5-yl)-pyrimidin-2-yl]-(4-thiomorpholin-4-yl-phenyl)-amine] |  | 0.0631 µM | 180 to 182 °C | 1.58 µM |  | 1.58 µM
10 | Cc1nc(C)c(-c2ccnc(Nc3ccc(N4CCSCC4)cc3)n2)s1 [Compound 202, [4-(2,4-Dimethyl-thiazol-5-yl)-pyrimidin-2-yl]-(4-thiomorpholin-4-yl-phenyl)-amine] |  | 0.158 µM | 173 to 174 °C | 5.01 µM |  | 
11 | CCNc1nc(C)c(-c2ccnc(Nc3ccc(N4CCSCC4)cc3)n2)s1 [Compound 203, [4-(2-Ethylamino-4-methyl-thiazol-5-yl)-pyrimidin-2-yl]-(4-thiomorpholin-4-yl-phenyl)-amine] |  | 0.126 µM | 207 to 209 °C | 2 µM |  | 3.16 µM
12 | Cc1cc(Nc2nccc(-c3sc(N)nc3C)n2)ccc1N1CCCCC1 [Compound 206, [4-(2-Amino-4-methyl-thiazol-5-yl)-pyrimidin-2-yl]-(3-methyl-4-piperidin-1-yl-phenyl)-amine] |  | 0.158 µM | 221 to 223 °C | 1.26 µM |  | 
13 | Cc1cc(Nc2nccc(-c3sc(N)nc3C)n2)ccc1N1CCOCC1 [Compound 218, [4-(2-Amino-4-methyl-thiazol-5-yl)-pyrimidin-2-yl]-(3-methyl-4-morpholin-4-yl-phenyl)-amine] |  | 0.0631 µM | 256 to 257 °C | 1.26 µM |  | 1.58 µM
14 | CCNc1nc(C)c(-c2ccnc(Nc3ccc(N4CCOCC4)c(C)c3)n2)s1 [Compound 219, [4-(2-Ethylamino-4-methyl-thiazol-5-yl)-pyrimidin-2-yl]-(3-methyl-4-morpholin-4-yl-phenyl)-amine] |  | 0.0631 µM | 213 to 214 °C | 1 µM |  | 3.16 µM
15 | Cc1nc(C)c(-c2ccnc(Nc3ccc(N4CCOCC4)c(C)c3)n2)s1 [Compound 220, [4-(2,4-Dimethyl-thiazol-5-yl)-pyrimidin-2-yl]-(3-methyl-4-morpholin-4-yl-phenyl)-amine] |  | 0.0398 µM | 164 to 166 °C | 1.26 µM |  | 6.31 µM
